Results from US11820822B2, “Methods for sensitizing cancer cells to T cell-mediated killing by modulating molecular pathways” (DANA-FARBER CANCER INSTITUTE, INC., priority 2017, dated 2023).

Columns and labels:
[1] = tested on: B16F10-Cas9 cells pulsed with SIINFEKL peptide, co-cultured with OT-I T cells; assay: Genome-scale CRISPR-Cas9 screen, selection with OT-I T cells; type: cell-based, mouse; details: Table 3; B16F10-Cas9 cells pulsed with SIINFEKL, co-cultured with OT-I T cells 1:1 for one day; negative = depleted, positive = enriched
[2] = tested on: B16F10-Cas9 cells co-cultured with Pmel-1 T cells; assay: Genome-scale CRISPR-Cas9 screen, selection with Pmel-1 T cells; type: cell-based, mouse; details: Table 3; B16F10-Cas9 cells pre-treated with IFNγ, co-cultured with Pmel-1 T cells 1:1 for three days; negative = depleted, positive = enriched

Row | Sequence | OT1 (sgRNA Log(2) fold change, OT-I selection versus control T cells) [1] | Pmel+ (sgRNA Log(2) fold change, Pmel-1 selection versus control T cells) [2]
1 | CGGGTATTACAGACTAACTG (chemistry not fully specified) | 2.71 | 3.20
2 | CTCAGCTGGATACAACCAGG (chemistry not fully specified) | -2.27 | 0.00
3 | CTCTTCCAACACGTCCAAGT (chemistry not fully specified) | 0.64 | 3.56
4 | CTGAGCATGTCTAACACGAG (chemistry not fully specified) | -2.99 | -0.37
5 | CTGCACCAATGTTGGTCACG (chemistry not fully specified) | 0.32 | 2.82
6 | CTGCAGCATATCGTCAACCA (chemistry not fully specified) | -2.30 | -0.72
7 | CTGTTACCTTCATAGATAAG (chemistry not fully specified) | -2.50 | 0.00
8 | CTTCAGATCTCTCTCGAATG (chemistry not fully specified) | -2.84 | -2.11
9 | CTTCCTGGACATCGACGTGG (chemistry not fully specified) | -2.12 | 0.56
10 | CTTGGTCAAATACACTACAG (chemistry not fully specified) | 1.61 | 2.66
11 | CTTGTGACGGTAATTCTGAA (chemistry not fully specified) | -2.48 | 0.00
12 | GAAAAATCTGTACACCACCG (chemistry not fully specified) | -2.64 | -0.30
13 | GAAAAGCAAGCGTAATCTCC (chemistry not fully specified) | 2.70 | 8.13
14 | GAACACTCAGCAAATTACAG (chemistry not fully specified) | -2.58 | -0.81
15 | GAAGACCAAAGAAGTTCATG (chemistry not fully specified) | -0.52 | 2.37
16 | GAAGTAAAGGGATTTAACAG (chemistry not fully specified) | -2.59 | -0.84
17 | GAATACGAAGCAGAAAAGGT (chemistry not fully specified) | -2.50 | 0.00
18 | GAATCCTCCAGAAGGAATCG (chemistry not fully specified) | 0.26 | 2.99
19 | GAATCTGAATGGAGGAACCT (chemistry not fully specified) | -2.21 | 0.00
20 | GAATGATATTATAGCGACGA (chemistry not fully specified) | -2.20 | 0.59
21 | GAATTGCAACGCCCACACCG (chemistry not fully specified) | -3.93 | 0.39
22 | GACAAGATGACAAACCTGGT (chemistry not fully specified) | 1.65 | 3.45
23 | GAGATCTGCACATTCCGCAC (chemistry not fully specified) | -2.69 | -0.78
24 | GAGTTGCAGCCAGATACGCG (chemistry not fully specified) | -3.25 | -1.28
25 | GATATGCTACAGGACCTTCG (chemistry not fully specified) | -2.83 | 0.44
26 | GATGTGTCCCTAGTCTACCG (chemistry not fully specified) | -3.40 | -0.24
